Peptide text beside a SMILES is read from it.

From PMC2700090 (Virology Journal, 2009) come the findings set out here.

The target of the test is neuraminidase (NA) (Influenza A virus (A/Hong Kong/1073/99(H9N2)), UniProt Q9ICY2). The experiment in a line: biochemical. Particulars: read-out: % inhibition at 1000 μM.

For orientation: inhibition means the relative decrease from the control value, in per cent. `C[C@@H](O)[C@H](NC(=O)[C@H](CCCCN)NC(=O)[C@H](CO)NC(=O)[C@H](CCCNC(=N)N)NC(=O)[C@H](Cc1ccccc1)NC(=O)[C@H](CC(=O)O)NC(=O)[C@@H](N)CC(N)=O)C(=O)O` [L-P1, NDFRSKT] (H-NDFRSKT-OH): the inhibition at 1000 µM is roughly 35%.
